{
  "source": "patent US20080138317A1",
  "about": "“Use of biocompatible amphiphilic polymers as an anti-inflammatory agent” (priority 2004, published 2008)",
  "system": "TNF-α release from monocytes",
  "format": "cell-based",
  "settings": "supernatant of human monocytes after overnight incubation; okadaic acid (OA) 50 nM; troglitazone 30 μm; MGSA polymers 50%; ELISA",
  "description": "Human monocytes were isolated from freshly collected buffy coat preparations of whole human blood. Briefly, whole blood was diluted 1:1.33 with sterile phosphate buffered solution (PBS) and layered over Histopaque, which was then centrifuged for 30 minutes at 1500 rpm at room temperature. The interface was harvested and washed with PBS, followed by another centrifugation at 1500 rpm for 10 minutes. A final wash was performed in RPMI 1640 with 10% fetal bovine serum (FBS). Cells were counted using a hemacytometer and seeded at 2.4×10^6 cells/300 μl into a 48-well tissue culture treated plate. Cells were incubated for 1 hour at 37° C., 5% CO2 and non-adherent cells were removed with a PBS wash. 300 μl of RPMI 1640 with 10% FBS was added back to the cells along with the various test conditions; cells in media alone, with DMSO (the vehicle used to reconstitue okadaic acid and troglitazone), with okadaic acid (OA, 50 nM), with OA and troglitazone (30 μm), with OA and monostearyl glyceride succinic anhydride (MGSA)-liquid (3305-15, 50%), and with OA and MGSA-solid (2804-60, 50%). The supernatants were collected after overnight incubation at 37° C., 5% CO2 and later analyzed for TNF-α by ELISA.",
  "data": [
    {"smiles": "Cc1c(C)c2c(c(C)c1O)CCC(C)(COc1ccc(CC3SC(=O)NC3=O)cc1)O2", "note": "(centres unmarked) [Troglitazone]", "values": [
      {"measurement": "TNF-α", "value": 422.554, "unit": "ng/mL"}
    ]},
    {"smiles": "C=C1[C@@H](O)[C@@H]2O[C@]3(CC[C@H](/C=C/[C@@H](C)[C@@H]4CC(C)=C[C@@]5(O[C@H](C[C@@](C)(O)C(=O)O)CC[C@H]5O)O4)O3)CC[C@H]2O[C@@H]1[C@@H](O)C[C@H](C)[C@H]1O[C@@]2(CCCCO2)CC[C@H]1C", "note": "[Okadaic Acid, okadaic acid]", "values": [
      {"measurement": "TNF-α", "value": 575.765, "unit": "ng/mL"}
    ]}
  ]
}
